Entries after “also recorded” stand apart in the source; their conditions may differ.
Assays:
[1] = test system: acetylation of the microtubule network in HeLa cells; assay: immunofluorescence microscopy of acetylated microtubule network; type: cell-based; details: 4 h
From the text: Cells were then stained with an anti-acetyl-α-tubulin antibody (Sigma-Aldrich, T6793) and then probed with a secondary Alexa 546 conjugated anti-mouse-antibody (Invitrogen). Nuclei were counterstained with DAPI (4',6-diamidino-2-phenylindole). Coverslips were mounted with FluoroMount (Sigma-Aldrich) and sealed with DPX Mountant (Sigma-Aldrich). Images of the mounted samples were acquired on a Leica DM500 microscope equipped with a Leica DFC 395 FX camera and HBO 100 W lamp[40]. The microscope was run with the Leica Application Suite 4.4.0 software. Chroma UV filter set (No. C40888) and Leica N2.1 filter set (No. 513832) were used for DAPI and Alexa 546 signal acquisition, respectively, with a HCX FL Fluotar 40x/0.75 (dry) objective. Further details about the equipment and the settings that were used to acquire the images are found in the Supplementary Methods section. Unprocessed images are found in Supplementary Fig. 9. […]
Immunocytochemistry equipment and settings. The signal of Alexa 546 and DAPI of the same region were acquired with constant illumination parameters as grayscale 8-bit 600 dpi tiff files (1600u 1200 pixels). Alexa 546 was acquired after 639.1 ms with a gamma factor of 0.65 without multiplying. The gain was set to 1. DAPI-stained images were acquired after about 20 ms with the same parameters as the one for Alexa 546 image acquisition. The temperature in the microscope room was kept at RT. Representative regions of each samples were processed with Adobe Photoshop CS2 to generate images in RGB mode by copying the appropriate original greyscale images to the blue (nuclei, DAPI) and the red (acetylated D-tubulin signal, Alexa 546) channel, respectively. As adjustment, a minimal background subtraction was applied on all images during processing in the same manner. The resolution was changed from 600 dpi (source images) to 450 dpi without resampling (Fig. 7 of the main article). LUT (CLUT) of grayscale images of the acetylated D-tubulin signal and of the DAPI signal are shown in Supplementary Fig. 8. […]

[2] = test system: p53-Lys382-acetylation in U2OS cells; assay: p53 acetylation after ultraviolet exposure, western blot; type: cell-based; details: 1 h pretreatment, 20 J cm^-2 UV, further 6 h
Procedure: U2OS cells (ATCC accession no. HTB-96) were seeded and cultured until they reached 90% confluency. […] Cells were incubated for an additional 6 h in the presence of the inhibitor and then lysed in IPLS (50 mM Tris/HCl, 150 mM NaCl; 0.5 mM EDTA; 0.5% (v/v) NP-40; 1 × Complete Protease Inhibitors (Roche), pH 8.0) and resuspended in 1 × Laemmli Buffer. Samples were then separated on SDS–PAGE, transferred to a nitrocellulose membrane (Bio-Rad), blocked with non-fat dry milk (Roth, 5% (w/v), TBS, 0.1% (v/v) Tween 20) and probed with anti-acetyl-p53 K382 (Cell Signaling, #2522), anti-p53 DO.1 (Santa Cruz Biotechnology, sc-126) and anti-vinculin (Cell Signaling, #4650) as a loading control. Uncropped blots are shown in the Supplementary Fig. 10.

Cc1cc(C)nc(SCC(=O)Nc2ncc(Cc3cccc4ccccc34)s2)n1 [SirReal2]
acetylation level of the microtubule network ([1]; 20 μM): induces hyperacetylation; also recorded: partial increase; also recorded: hyperacetylation of the microtubule network | acetylation level of the microtubule network ([1]; 50 μM): induces hyperacetylation | acetylation of p53 (Lys382) after ultraviolet exposure [2]: does not affect; also recorded: did not observe an increase; also recorded: does not alter
